Measurements from US20260365646A1, “AKT1 MODULATORS” (Alterome Therapeutics, Inc., priority 2022, published 2026).
pEC50: −log10 of the molar value. Read-outs that look alike come from different tables or passages of the source.

Target: T1, full length AKT E17K (Homo sapiens, UniProt P31749, E17K)
T1 construct: host or cells: HEK-293 (ATCC CRL-1573)
Experiment: NanoBRET Target Engagement (TE) Intracellular Kinase Assay
Format: cell-based
Summary of the method: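 Live-cell BRET assay: cells expressing NanoLuc-fused full-length AKT E17K incubated 2 h with tracer at target-optimized concentration plus compound. BRET read at 450 nm donor/600 nm acceptor with extracellular NanoLuc inhibitor. EC50 from sigmoidal variable-slope fit of tracer displacement.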

[1] = read-out: NanoBRET AKT1E17K EC50, HEK-293 cells transfected with NanoLuc-AKT E17K, competitive displacement of NanoBRET tracer, 2 hr equilibration, 10-point 3-fold dilution

T1 sequence (P31749 whole entry E17K): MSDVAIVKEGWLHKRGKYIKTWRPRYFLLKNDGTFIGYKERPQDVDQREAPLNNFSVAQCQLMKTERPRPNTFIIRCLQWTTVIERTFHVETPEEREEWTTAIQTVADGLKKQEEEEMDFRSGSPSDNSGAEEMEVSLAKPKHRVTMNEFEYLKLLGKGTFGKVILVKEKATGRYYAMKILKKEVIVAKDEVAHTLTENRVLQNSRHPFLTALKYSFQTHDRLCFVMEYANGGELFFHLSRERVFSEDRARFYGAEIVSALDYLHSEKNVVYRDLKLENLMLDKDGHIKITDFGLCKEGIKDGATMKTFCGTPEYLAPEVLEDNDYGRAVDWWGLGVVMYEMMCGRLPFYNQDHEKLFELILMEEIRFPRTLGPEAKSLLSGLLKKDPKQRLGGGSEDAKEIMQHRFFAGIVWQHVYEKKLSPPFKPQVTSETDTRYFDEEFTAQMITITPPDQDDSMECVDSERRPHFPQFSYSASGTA

Structure (SMILES) | pEC50 [1] | pEC50
[2H]C([2H])([2H])Oc1c(NC2CCN(Cc3ccc(-n4c(-c5cccnc5N)nc5ccc(-c6ccccc6)nc54)cc3)CC2)c(=O)c1=O [Example 13, 3-((1-(4-(2-(2-Aminopyridin-3-yl)-5-phenyl-3H-imidazo[4,5-b]pyridin-3-yl)benzyl)piperidin-4-yl)amino)-4-(methoxy-d3)cyclobut-3-ene-1,2-dione] | > 7.82 | –
CN(C)c1c(NC2CCN(Cc3ccc(-n4c(-c5cccnc5N)nc5ccc(-c6ccccc6)nc54)cc3)CC2)c(=O)c1=O [Example 19, 3-((1-(4-(2-(2-Aminopyridin-3-yl)-5-phenyl-3H-imidazo[4,5-b]pyridin-3-yl)benzyl)piperidin-4-yl)amino)-4-(dimethylamino)cyclobut-3-ene-1,2-dione] | – | < 6.22
COc1c(N2CCN(Cc3ccc(-n4c(-c5cccnc5N)nc5cccnc54)cc3)CC2)c(=O)c1=O [Example 1, 3-(4-(4-(2-(2-Aminopyridin-3-yl)-3H-imidazo[4,5-b]pyridin-3-yl)benzyl)piperazin-1-yl)-4-methoxycyclobut-3-ene-1,2-dione] | – | < 6.22
COc1c(Nc2cccc(C(=O)NCc3ccc(-n4c(-c5cccnc5N)nc5ccc(-c6ccccc6)nc54)cc3)c2)c(=O)c1=O [Example 33, N-(4-(2-(2-aminopyridin-3-yl)-5-phenyl-3H-imidazo[4,5-b]pyridin-3-yl)benzyl)-3-((2-methoxy-3,4-dioxocyclobut-1-en-1-yl)amino)benzamide] | – | 6.22 to 7.22
Nc1ncccc1-c1nc2ccc(-c3ccccc3)nc2n1-c1ccc(CN2CCC(N3CCCOc4c3c(=O)c4=O)C2)cc1 (stereo not shown) [Example 82, 6-(1-(4-(2-(2-aminopyridin-3-yl)-5-phenyl-3H-imidazo[4,5-b]pyridin-3-yl)benzyl)pyrrolidin-3-yl)-2-oxa-6-azabicyclo[5.2.0]non-1(7)-ene-8,9-dione] | – | 6.22 to 7.22
COc1c(NC2CCCN(Cc3ccc(-n4c(-c5cccnc5N)nc5ccc(-c6ccccc6)nc54)cc3)CC2)c(=O)c1=O (stereo not shown) [Example 73, 3-((1-(4-(2-(2-aminopyridin-3-yl)-5-phenyl-3H-imidazo[4,5-b]pyridin-3-yl)benzyl)azepan-4-yl)amino)-4-methoxycyclobut-3-ene-1,2-dione] | > 7.82 | –
CSc1c(N(C2CC2)C2CCN(Cc3ccc(-n4c(-c5cccnc5N)nc5ccc(-c6ccccc6)nc54)cc3)CC2)c(=O)c1=O [Example 95, 3-((1-(4-(2-(2-aminopyridin-3-yl)-5-phenyl-3H-imidazo[4,5-b]pyridin-3-yl)benzy1)piperidin-4-yl)(cyclopropyl)amino)-4-(methylthio)cyclobut-3-ene-1,2-dione] | – | 7.22 to 7.82
COc1c(N(C2CC2)C2CCN(Cc3ccc(-n4c(-c5cccnc5N)nc5ccc(-c6ccccc6)nc54)cc3)CC2)c(=O)c1=O [Example 94, 3-((1-(4-(2-(2-aminopyridin-3-yl)-5-phenyl-3H-imidazo[4,5-b]pyridin-3-yl)benzyl)piperidin-4-yl)(cyclopropyl)amino)-4-methoxycyclobut-3-ene-1,2-dione] | > 7.82 | –
CSc1c(N2C[C@H]3CN(Cc4ccc(-n5c(-c6cccnc6N)nc6ccc(-c7ccccc7)nc65)cc4)C[C@H]3C2)c(=O)c1=O [Example 87, 3-((3aR,6aS)-5-(4-(2-(2-aminopyridin-3-yl)-5-phenyl-3H-imidazo[4,5-b]pyridin-3-yl)benzyl)hexahydropyrrolo[3,4-c]pyrrol-2(1H)-yl)-4-(methylthio)cyclobut-3-ene-1,2-dione] | > 7.82 | –

The remaining lines, values ahead:

pEC50 [1] | pEC50 | Structure (SMILES)
> 7.82 | – | COc1c(N[C@H]2CCN(Cc3ccc(-n4c(-c5cccnc5N)nc5ccc(-c6ccccc6)nc54)cc3)C2)c(=O)c1=O [Example 30, (S)-3-((1-(4-(2-(2-Aminopyridin-3-yl)-5-phenyl-3H-imidazo[4,5-b]pyridin-3-yl)benzyl)pyrrolidin-3-yl)amino)-4-methoxycyclobut-3-ene-1,2-dione]
– | 7.22 to 7.82 | [2H]C([2H])([2H])Oc1c(N2CCN(Cc3ccc(-n4c(-c5cccnc5N)nc5ccc(-c6ccccc6)nc54)cc3)CC2)c(=O)c1=O [Example 23, 3-(4-(4-(2-(2-Aminopyridin-3-yl)-5-phenyl-3H-imidazo[4,5-b]pyridin-3-yl)benzyl)piperazin-1-yl)-4-(methoxy-d3)cyclobut-3-ene-1,2-dione]
– | 7.22 to 7.82 | COc1c(N2CCCC3(CCN(Cc4ccc(-n5c(-c6cccnc6N)nc6ccc(-c7ccccc7)nc65)cc4)CC3)C2)c(=O)c1=O [Example 31, 3-(9-(4-(2-(2-Aminopyridin-3-yl)-5-phenyl-3H-imidazo[4,5-b]pyridin-3-yl)benzyl)-2,9-diazaspiro[5.5]undecan-2-yl)-4-methoxycyclobut-3-ene-1,2-dione]
– | 7.22 to 7.82 | COc1c(N2CCC3(CN(Cc4ccc(-n5c(-c6cccnc6N)nc6ccc(-c7ccccc7)nc65)cc4)C3)C2)c(=O)c1=O [Example 42, 3-(2-(4-(2-(2-Aminopyridin-3-yl)-5-phenyl-3H-imidazo[4,5-b]pyridin-3-yl)benzyl)-2,6-diazaspiro[3.4]octan-6-yl)-4-methoxycyclobut-3-ene-1,2-dione]
> 7.82 | – | COc1c(NC2CCN(Cc3ccc(-n4c(-c5cccnc5N)nc5ccc(-c6ccccc6)nc54)cc3)CC2)c(=O)c1=O [Example 17, 3-((1-(4-(2-(2-Aminopyridin-3-yl)-5-phenyl-3H-imidazo[4,5-b]pyridin-3-yl)benzyl)piperidin-4-yl)amino)-4-methoxycyclobut-3-ene-1,2-dione]
– | 6.22 to 7.22 | COc1c(N2[C@@H](C)CN(Cc3ccc(-n4c(-c5cccnc5N)nc5ccc(-c6ccccc6)nc54)cc3)C[C@@H]2C)c(=O)c1=O [Example 70, 3-((2S,6S)-4-(4-(2-(2-aminopyridin-3-yl)-5-phenyl-3H-imidazo[4,5-b]pyridin-3-yl)benzyl)-2,6-dimethylpiperazin-1-yl)-4-methoxycyclobut-3-ene-1,2-dione]
– | 7.22 to 7.82 | COc1c(N2CCCC3(CCN(Cc4ccc(-n5c(-c6cccnc6N)nc6ccc(-c7ccccc7)nc65)cc4)C3)C2)c(=O)c1=O (stereo not shown) [Example 58, 3-(2-(4-(2-(2-Aminopyridin-3-yl)-5-phenyl-3H-imidazo[4,5-b]pyridin-3-yl)benzyl)-2,7-diazaspiro[4.5]decan-7-yl)-4-methoxycyclobut-3-ene-1,2-dione]
> 7.82 | – | COc1c(NC2CCC3(CC2)CN(Cc2ccc(-n4c(-c5cccnc5N)nc5ccc(-c6ccccc6)nc54)cc2)C3)c(=O)c1=O [Example 98, 3-((2-(4-(2-(2-aminopyridin-3-yl)-5-phenyl-3H-imidazo[4,5-b]pyridin-3-yl)benzyl)-2-azaspiro[3.5]nonan-7-yl)amino)-4-methoxycyclobut-3-ene-1,2-dione]
– | 6.22 to 7.22 | COc1c(N2[C@H](C)CN(Cc3ccc(-n4c(-c5cccnc5N)nc5ccc(-c6ccccc6)nc54)cc3)C[C@H]2C)c(=O)c1=O [Example 69, 3-((2R,6R)-4-(4-(2-(2-aminopyridin-3-yl)-5-phenyl-3H-imidazo[4,5-b]pyridin-3-yl)benzyl)-2,6-dimethylpiperazin-1-yl)-4-methoxycyclobut-3-ene-1,2-dione]
– | 7.22 to 7.82 | CCSc1c(N2CCC3(CC2)CN(Cc2ccc(-n4c(-c5cccnc5N)nc5ccc(-c6ccccc6)nc54)cc2)C3)c(=O)c1=O [Example 61, 3-(2-(4-(2-(2-Aminopyridin-3-yl)-5-phenyl-3H-imidazo[4,5-b]pyridin-3-yl)benzyl)-2,7-diazaspiro[3.5]nonan-7-yl)-4-(ethylthio)cyclobut-3-ene-1,2-dione]
